Experimental findings from patent US20030176500A1, “Medium chain fatty acids applicable as antimicrobial agents” (priority 2000, published 2003) are described below.

The assay concerns E. coli K88. Kind of assay: Control of E. coli K88 growth in Brain Heart Infusion broth (OD600nm). Type of assay: cell-based, Escherichia coli. To be noted: colistine 12 ppm, sodium salt of MCFA 1200 ppm; for OD600nm: pH 4.0, 37° C., MCFA values higher by intrinsic turbidity. The protocol: Three samples of 100 ml of fermentation broth (Brain Heart Infusion) were equally inoculated with an overnight culture of E. coli K88 (pathogen in gastrointestinal tract of piglet) and further incubated at 37° C. The optical density at 600 nm (OD600nm)—which is proportional to the amount of E. coli cells present (FIG. 1)—was measured. As soon as an OD600nm of between 0.2 and 0.5 was obtained,
(1) nothing was added to the first sample,
(2) 12 ppm of colistine was added to the second sample and
(3) 1200 ppm of the sodium salt of MCFA (mixture containing 50% of fatty acid with 8 carbon atoms and 50% of fatty acid with 10 carbon atoms) was added to the third sample.
The samples were further incubated at 37° C. for 4 hours at pH 4.0. The OD600nm was measured evey hour. The samples were removed from the incubation after 4 hours, the pH was measured in order to register possible pH changes during incubation.

Consider colistine, for which the OD600nm (2 hours after pH setting) is listed as 0.420, the OD600nm (3 hours after pH setting) was found to be 0.449 and the OD600nm (4 hours after pH setting) stood at 0.455. The “Difference in OD600nm” value (between 2 and 4 hours) is listed as 0.035. Besides, the Growth % (blank = 100) turned out to be 44%. Moreover, the “growth of E. coli retarded” value (pH 4.0) came out at 56%.
